How the values were obtained:
[1] = test system: cytokine and cellular levels in the BALF; settings: complexes formed between DOTMA and pDNA; Friemark et al. 1998; cited from earlier work
cytokines in BALF = assay: Cytokine levels in mouse BALF after intranasal instillation (ELISA); assay type: in vivo, BALB/c mice; settings: component instilled alone; BALF 24 h
Excerpt: Cytokine levels in the mouse BALF were quantitated using enzyme-linked immunosorbent assay (ELISA) kits as specified by the manufacturers. IFN-γ, TNF-α, IL1-α, IL-1β, IL-10 and IL-6 ELISA kits were from Genzyme Corporation, while mKC, MIP-2 and GM-CSF ELISA kits were from R&D Systems, and the Leukotriene B4 ELISA kit was from Perseptive Diagnostics.
The cationic lipid:pDNA complexes were formed by mixing equal volumes of GL67:DOPE (1:2) with pDNA as described previously (Lee et al., Hum. Gene Ther. 7: 1701-1717, (1996)) to a final concentration of 0.6:1.2:3.6 mM (GL-67:DOPE:pDNA) or 0.3:0.6:1.8 mM, as indicated in the figure legends. The DNA concentration is expressed in terms of nucleotides, using an average nucleotide molecular weight of 330 daltons. BALB/c mice were instilled intranasally with 100 μl of complex as described. See Scheule et al., Hum. Gene Ther. 8: 689-707 (1997). The animals were euthanized and their lungs were lavaged 24 h post-instillation using phosphate-buffered saline (PBS). The recovered BALF were centrifuged at 1,500 rpm for 4 min, and the resulting supernatants were removed and frozen at −80° C. for subsequent cytokine analysis. […]
To determine whether methylation of pDNA affected the inflammatory response in the lungs, we measured the levels of several different cytokines in the BALF 24 h after instillation. […]

BALB/c mouse lungs = assay: Histopathological analysis of lung after intranasal instillation; assay type: in vivo, BALB/c mice; settings: component alone; scale from 0 to 4; 2 days post-instillation
Excerpt: The histopathological changes within BALB/c mouse lungs following administration of either cationic lipid alone, pDNA alone, or cationic lipid:pDNA complexes were also examined. BALB/c mice were instilled intranasally with GL-67:(m)pCF1-CAT, GL67:pCF1-CAT, GL-67 alone, (m)pCF1-CAT, pCF1-CAT, or water (vehicle control). Mice were sacrificed 2 days post-instillation and the lungs were processed for histological examination in a blinded manner. Histopathology.
Lungs were fixed by inflation at 30 cm of H2O pressure with 2% paraformaldehyde and 0.2% glutaraldehyde. Representative samples were taken from each lung lobe, embedded in glycol methacrylate, sectioned and stained with hematoxylin and eosin. Histopathology on the lung was evaluated in a blinded fashion and graded subjectively using a scale of 0 to 4, where a score of 0 indicates no abnormal findings and a score of 4 reflects severe changes with intense infiltrates. See Scheule et al., Hum. Gene Ther. 8: 689-707 (1997).
The extent of lung inflammation was graded using a scale from 0 to 4, with 0 indicating no abnormalities, 1 indicating a minimal change, 2 a mild change, 3 a moderate change, and 4 representing severe changes from a normal lung (FIG. 4).

M3 melanoma cells = assay: M3 melanoma model; assay type: in vivo, mice; settings: lipid alone, equivalent amount; treated days 5, 10, 14, 18
Description: On day 0, mice were inoculated intraperitoneally with M3 melanoma cells. Following the inoculation of M3 tumor cells, the mice were treated on days […], 14, and 18 with either the GL67:pNull complex, which is cationic lipid GL67 complexed to a null vector (a vector without an expressible insert), or were left untreated (control). All untreated control animals died by day 40, while greater than 85% of the animals treated with the GL 67:pNull complex were alive on day 68.
On day 68, the surviving animals were rechallenged subcutaneously with M3 tumor cells. A naive group of animals was also challenged with these same cells in parallel. All the animals in the naive group died by day 105, while approximately 40% of the animals that had been originally treated with the GL 67:pNull complex survived not only the initial intraperitoneal tumor cells but also the secondary subcutaneous challenge.
Following the intraperitoneal inoculation on day 0 of M3 tumor cells, groups of mice were treated on days 5, 10, 14, and 18 with either GL 67:pNull complexes (lipid:pNull), an equivalent amount of GL 67 (lipid alone), an equivalent amount of pNull DNA (pNull vector alone), or were untreated.

SMILES | cytokine and cellular levels in the BALF of treated animals [1] | levels of these four cytokine (TNF-α, IFN-γ, IL-6, KC) in BALF (cytokines in BALF) | lung inflammation score (BALB/c mouse lungs) | mice surviving more than 50 days post tumor cell inoculation (M3 melanoma cells)
CCCCCCCC/C=C\CCCCCCCCOCC(C[N+](C)(C)C)OCCCCCCCC/C=C\CCCCCCCC.[Cl-] (stereo not shown) [DOTMA, N-[1-(2-3-dioleyloxy)propyl]-N,N,N-trimethylammonium chloride] | enhanced |  |  | 
CC(C)CCC[C@@H](C)[C@H]1CC[C@H]2[C@@H]3CC=C4C[C@@H](OC(=O)N(CCCN)CCCCNCCCN)CC[C@]4(C)[C@H]3CC[C@]12C [GL-67] |  | low levels | scored slightly lower than lungs that received lipid:pDNA complex | about 35%
